Test results from patent US11331369B2, “Endoparasitic depsipeptides” (Zoetis Services LLC, priority 2017, dated 2022).

Test system: microfilariae of Dirofilaria immitis
Assay: Dirofilaria immitis, Microfilaria (DiMF) In vitro Assay
Assay type: cell-based
Details: 72 h, read-out: DiMF Minimum Effective Dose (MED), approximately 72 hours incubation, microfilariae assessed for survival or paralysis

Structure (SMILES) | minimal effective concentration
CC(C)C[C@H]1C(=O)O[C@H](Cc2ccc(Cn3ccnc3C(C)C)cc2)C(=O)N(C)[C@@H](CC(C)C)C(=O)O[C@H](C)C(=O)N(C)[C@@H](CC(C)C)C(=O)O[C@H](Cc2ccc(Cn3ccnc3C(C)C)cc2)C(=O)N(C)[C@@H](CC(C)C)C(=O)O[C@H](C)C(=O)N1C [Example 6-8, (3S,6R,9S,12R,15S,18R,21S,24R)-3,9,15,21-tetraisobutyl-6,18-bis(4-((2-isopropyl-1H-imidazol-1-yl)methyl)benzyl)-4,10,12,16,22,24-hexamethyl-1,7,13,19-tetraoxa-4,10,16,22-tetraazacyclotetracosan-2,5,8,11,14,17,20,23-octaone] | 0.01 to 0.1 µM
Cc1nn(Cc2ccc(C[C@H]3OC(=O)[C@H](CC(C)C)N(C)C(=O)[C@@H](C)OC(=O)[C@H](CC(C)C)N(C)C(=O)[C@@H](Cc4ccc(Cn5nc(C)c(OC(C)C)c5C)cc4)OC(=O)[C@H](CC(C)C)N(C)C(=O)[C@@H](C)OC(=O)[C@H](CC(C)C)N(C)C3=O)cc2)c(C)c1OC(C)C [Example 1b-188, (3S,6R,9S,12R,15S,18R,21S,24R)-3,9,15,21-tetraisobutyl-6,18-bis(4-((4-isopropoxy-3,5-dimethyl-1H-pyrazol-1-yl)methyl)benzyl)-4,10,12,16,22,24-hexamethyl-1,7,13,19-tetraoxa-4,10,16,22-tetraazacyclotetracosan-2,5,8,11,14,17,20,23-octaone] | 0.01 to 0.1 µM
CC(C)C[C@H]1C(=O)O[C@H](Cc2ccc(Cn3ccc(Cl)cc3=O)cc2)C(=O)N(C)[C@@H](CC(C)C)C(=O)O[C@H](C)C(=O)N(C)[C@@H](CC(C)C)C(=O)O[C@H](Cc2ccc(Cn3ccc(Cl)cc3=O)cc2)C(=O)N(C)[C@@H](CC(C)C)C(=O)O[C@H](C)C(=O)N1C [Example 9-21, (3S,6R,9S,12R,15S,18R,21S,24R)-6,18-bis(4-((4-chloro-2-oxopyridin-1 (2H)-yl)methyl)benzyl)-3,9,15,21-tetraisobutyl-4,10,12,16,22,24-hexamethyl-1,7,13,19-tetraoxa-4,10,16,22-tetraazacyclotetracosan-2,5,8,11,14,17,20,23-octaone] | 0.001 to 0.01 µM
Cc1cnn(Cc2ccc(C[C@H]3OC(=O)[C@H](CC(C)C)N(C)C(=O)[C@@H](C)OC(=O)[C@H](CC(C)C)N(C)C(=O)[C@@H](Cc4ccc(Cn5ccc(-c6ccccc6)n5)cc4)OC(=O)[C@H](CC(C)C)N(C)C(=O)[C@@H](C)OC(=O)[C@H](CC(C)C)N(C)C3=O)cc2)c1 [Example 1a-28, (3S,6R,9S,12R,15S,18R,21S,24R)-3,9,15,21-tetraisobutyl-4,6,10,16,18,22-hexamethyl-12-(4-((4-methyl-1H-pyrazol-1-yl)methyl)benzyl)-24-(4-((3-phenyl-1H-pyrazol-1-yl)methyl)benzyl)-1,7,13,19-tetraoxa-4,10,16,22-tetraazacyclotetracosan-2,5,8,11,14,17,20,23-octaone] | 0.01 to 0.1 µM
CCOc1cn(Cc2ccc(C[C@H]3OC(=O)[C@H](CC(C)C)N(C)C(=O)[C@@H](C)OC(=O)[C@H](CC(C)C)N(C)C(=O)[C@@H](Cc4ccc(Cn5cc(OCC)c(C)n5)cc4)OC(=O)[C@H](CC(C)C)N(C)C(=O)[C@@H](C)OC(=O)[C@H](CC(C)C)N(C)C3=O)cc2)nc1C [Example 1b-198, (3S,6R,9S,12R,15S,18R,21S,24R)-6,18-bis[[4-[(4-ethoxy-3-methyl-pyrazol-1-yl)methyl]phenyl]methyl]-3,9,15,21-tetraisobutyl-4,10,12,16,22,24-hexamethyl-1,7,13,19-tetraoxa-4,10,16,22-tetrazacyclotetracosane-2,5,8,11,14,17,20,23-octaone] | 0.01 to 0.1 µM
